Experimental data: patent publication US7838542B2, “Bicyclic compositions and methods for modulating a kinase cascade” (Kinex Pharmaceuticals, LLC, priority 2006, dated 2010)

Experiments:
isolated kinases = assay: Isolated kinases panel, percent activity relative to control (Table XV); format: biochemical
Description: (§1) Table XV illustrates percent activity of isolated kinases in the presence of the AstraZeneca ATP-competitive inhibitor (KX-328, AZ-28) or KX2-391 relative to control (untreated) isolated kinases.

Abl = Abl (Homo sapiens, UniProt P00519); assay: Isolated kinase assay, Abl; format: biochemical
Description: as §1

EGFRTK = EGFRTK (Homo sapiens, UniProt P00533); assay: Isolated kinase assay, EGFRTK; format: biochemical
Description: as §1

Fyn = Fyn (Homo sapiens, UniProt P06241); assay: Isolated kinase assay, Fyn; format: biochemical
Description: as §1

Lck = Lck (Homo sapiens, UniProt P06239); assay: Isolated kinase assay, Lck; format: biochemical
Description: as §1

Lyn = Lyn (Homo sapiens, UniProt P07948); assay: Isolated kinase assay, Lyn; format: biochemical
Description: as §1

Yes = Yes (Homo sapiens, UniProt P07947); assay: Isolated kinase assay, Yes; format: biochemical
Description: as §1

[1] = tested on: PDGF receptor tyrosine kinase; assay: Isolated kinase assay, PDGF receptor tyrosine kinase; format: biochemical; settings: @ 10 μM
Description: as §1

Src = Src (Homo sapiens, UniProt P12931); assay: Isolated kinase assay and titration, Src; format: biochemical; settings: titration data
Description: as §1

[2] = tested on: c-Src/NIH-3T3 engineered cell line; assay: Src-driven cell growth, c-Src/NIH-3T3; format: cell-based
[3] = tested on: NCI human colon cancer cell line HT29; assay: Cell growth, HT29; format: cell-based
Src-Y416 = assay: Intracellular phosphorylation: Src-Y416 autophosphorylation; format: cell-based; settings: HT29 and c-Src527F/NIH-3T3 cells; 0.2×, 1×, 5×, 25× GI50
Experimental: (§2) HT29 (colon cancer) and c-Src527F/NIH-3T3 (Src transformed) cell lines were treated with KX2-391 or with AstraZeneca's ATP competitive Src inhibitor AZ28. AZ28 serves as a positive comparator to show what a validated Src inhibitor should do in these assays. After treatment with compound, cells were lysed, subjected to PAGE and probed with a battery of antibodies. […] In addition, off-target protein phosphorylation was also investigated. Further, induction of apoptosis was evaluated via Caspase 3 cleavage. Multiple doses of each compound were tested because the trends in response to increasing drug concentration are the most reliable indicator of activity.
(§3) The same range of multiples of the GI50 for AZ28 in these two cell lines was run as a comparison.

FAK Tyr 925 = assay: Intracellular phosphorylation: FAK Tyr 925; format: cell-based; settings: c-Src/NIH-3T3 and HT-29 cells
Experimental: as §2, §3

Shc Y239/240 = assay: Intracellular phosphorylation: Shc Y239/240; format: cell-based; settings: c-Src/NIH-3T3 and HT-29 cells
Experimental: as §2, §3

Paxillin Y-31 = assay: Intracellular phosphorylation: Paxillin Y-31; format: cell-based; settings: c-Src/NIH-3T3 cells
Experimental: as §2, §3
Note: paxillin Y-31 was not detected in HT29 cells with or without added drug.

Caspase-3 = assay: Induction of apoptosis via Caspase 3 cleavage; format: cell-based; settings: HT29 and c-Src527F/NIH-3T3 cells
Experimental: as §2
Cleavage of Caspase-3 is a good measure of induction of apoptosis.

total phosphotyrosine = assay: Total phosphotyrosine levels; format: cell-based; settings: HT29 and c-Src527F/NIH-3T3 cells
Experimental: as §2

[4] = tested on: PDGF receptor tyrosine kinase Y572/574; assay: PDGF receptor autophosphorylation Y572/574; format: cell-based; settings: c-Src/NIH-3T3 cells
Experimental: as §2
PDGF receptor tyrosine kinase autophosphorylates on Y572/574. This is thought not to be a direct Src substrate in cells. […] PDGF receptor tyrosine kinase Y572/574 was not detected in HT29 cells with no drug added (as well as with drug added).

FAK Y397 = FAK Y397 autophosphorylation; format: cell-based; settings: c-Src527F/NIH3T3 cells
Experimental: as §2
FAK Y397 is mainly a FAK autophosphorylation site and only a poor Src transphorylation site.

EGFR tyrosine kinase = EGFR tyrosine kinase autophosphorylation; format: cell-based; settings: c-Src/NIH-3T3 and HT-29 cells
Experimental: as §2
This site is not a direct Src phosphorylation site.

CHK1(h) = CHK1(h) (Homo sapiens, UniProt O14757); assay: Isolated kinases, percent activity relative to control (Table XV), CHK1; format: biochemical; settings: @ 10 μM
Description: as §1

FGFR2(h) = FGFR2(h) (Homo sapiens, UniProt P21802); assay: Isolated kinases, percent activity relative to control (Table XV), FGFR2; format: biochemical; settings: @ 10 μM
Description: as §1

IGF-1R(h) = IGF-1R(h) (Homo sapiens, UniProt P08069); assay: Isolated kinases, percent activity relative to control (Table XV), IGF-1R; format: biochemical; settings: @ 10 μM
Description: as §1

IR(h) = IR(h) (Homo sapiens, UniProt P06213); assay: Isolated kinases, percent activity relative to control (Table XV), IR; format: biochemical; settings: @ 10 μM
Description: as §1

MAPK2(h) = MAPK2(h) (Homo sapiens, UniProt P28482); assay: Isolated kinases, percent activity relative to control (Table XV), MAPK2; format: biochemical; settings: @ 10 μM
Description: as §1

PKCα(h) = PKCα(h) (Homo sapiens, UniProt P17252); assay: Isolated kinases, percent activity relative to control (Table XV), PKCα; format: biochemical; settings: @ 10 μM
Description: as §1

Pyk2(h) = Pyk2(h) (Homo sapiens, UniProt Q14289); assay: Isolated kinases, percent activity relative to control (Table XV), Pyk2; format: biochemical; settings: @ 10 μM
Description: as §1

ZAP-70(h) = ZAP-70(h) (Homo sapiens, UniProt P43403); assay: Isolated kinases, percent activity relative to control (Table XV), ZAP-70; format: biochemical; settings: @ 10 μM
Description: as §1

PI3 kinase = assay: Isolated kinases, percent activity relative to control (Table XV), PI3 kinase; format: biochemical; settings: @ 10 μM
Description: as §1

Sequence of EGFRTK (P00533 25-1210): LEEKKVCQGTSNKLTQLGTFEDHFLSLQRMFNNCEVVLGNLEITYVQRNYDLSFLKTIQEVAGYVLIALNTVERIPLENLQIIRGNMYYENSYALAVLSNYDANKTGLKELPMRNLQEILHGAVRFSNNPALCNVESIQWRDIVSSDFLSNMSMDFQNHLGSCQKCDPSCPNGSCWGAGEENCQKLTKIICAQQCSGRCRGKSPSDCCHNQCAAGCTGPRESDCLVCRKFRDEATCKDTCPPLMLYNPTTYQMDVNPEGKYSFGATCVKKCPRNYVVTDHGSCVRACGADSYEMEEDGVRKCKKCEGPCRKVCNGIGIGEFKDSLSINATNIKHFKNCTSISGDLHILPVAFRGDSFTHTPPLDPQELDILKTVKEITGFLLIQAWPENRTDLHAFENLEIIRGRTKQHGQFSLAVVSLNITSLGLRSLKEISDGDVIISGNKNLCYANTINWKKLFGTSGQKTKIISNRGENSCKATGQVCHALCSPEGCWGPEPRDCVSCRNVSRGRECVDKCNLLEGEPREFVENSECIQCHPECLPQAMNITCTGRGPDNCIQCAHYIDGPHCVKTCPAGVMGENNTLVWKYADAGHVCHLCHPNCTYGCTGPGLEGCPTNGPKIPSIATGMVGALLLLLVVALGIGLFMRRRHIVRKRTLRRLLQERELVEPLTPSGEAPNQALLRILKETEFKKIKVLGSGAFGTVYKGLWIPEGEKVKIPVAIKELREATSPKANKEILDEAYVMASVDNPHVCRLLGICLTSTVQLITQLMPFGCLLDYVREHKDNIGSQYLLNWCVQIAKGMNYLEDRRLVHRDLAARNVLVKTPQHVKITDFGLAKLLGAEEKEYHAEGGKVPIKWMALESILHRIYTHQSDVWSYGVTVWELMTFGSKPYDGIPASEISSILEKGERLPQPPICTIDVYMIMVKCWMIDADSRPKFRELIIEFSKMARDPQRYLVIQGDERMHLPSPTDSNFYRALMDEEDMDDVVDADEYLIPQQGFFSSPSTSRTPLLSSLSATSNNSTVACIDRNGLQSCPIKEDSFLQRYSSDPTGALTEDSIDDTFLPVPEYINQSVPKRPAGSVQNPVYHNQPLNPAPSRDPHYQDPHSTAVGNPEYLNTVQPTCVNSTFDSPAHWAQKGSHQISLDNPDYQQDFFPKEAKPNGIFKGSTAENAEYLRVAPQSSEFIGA
Sequence of Yes (P07947 whole entry): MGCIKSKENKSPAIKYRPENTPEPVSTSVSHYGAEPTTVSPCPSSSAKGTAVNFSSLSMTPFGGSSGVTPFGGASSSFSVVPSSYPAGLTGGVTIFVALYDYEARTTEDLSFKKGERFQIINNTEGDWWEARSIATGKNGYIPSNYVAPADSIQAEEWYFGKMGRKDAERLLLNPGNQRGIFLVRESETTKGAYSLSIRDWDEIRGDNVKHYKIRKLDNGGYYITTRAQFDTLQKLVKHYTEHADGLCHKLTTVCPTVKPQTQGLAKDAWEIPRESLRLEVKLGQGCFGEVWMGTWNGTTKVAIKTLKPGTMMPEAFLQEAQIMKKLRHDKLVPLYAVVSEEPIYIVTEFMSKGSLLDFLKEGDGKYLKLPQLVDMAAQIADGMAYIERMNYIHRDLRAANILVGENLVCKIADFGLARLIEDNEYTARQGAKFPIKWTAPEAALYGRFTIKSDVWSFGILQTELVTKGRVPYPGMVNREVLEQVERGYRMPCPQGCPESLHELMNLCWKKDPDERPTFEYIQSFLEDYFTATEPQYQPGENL
Sequence of Lck (P06239 whole entry): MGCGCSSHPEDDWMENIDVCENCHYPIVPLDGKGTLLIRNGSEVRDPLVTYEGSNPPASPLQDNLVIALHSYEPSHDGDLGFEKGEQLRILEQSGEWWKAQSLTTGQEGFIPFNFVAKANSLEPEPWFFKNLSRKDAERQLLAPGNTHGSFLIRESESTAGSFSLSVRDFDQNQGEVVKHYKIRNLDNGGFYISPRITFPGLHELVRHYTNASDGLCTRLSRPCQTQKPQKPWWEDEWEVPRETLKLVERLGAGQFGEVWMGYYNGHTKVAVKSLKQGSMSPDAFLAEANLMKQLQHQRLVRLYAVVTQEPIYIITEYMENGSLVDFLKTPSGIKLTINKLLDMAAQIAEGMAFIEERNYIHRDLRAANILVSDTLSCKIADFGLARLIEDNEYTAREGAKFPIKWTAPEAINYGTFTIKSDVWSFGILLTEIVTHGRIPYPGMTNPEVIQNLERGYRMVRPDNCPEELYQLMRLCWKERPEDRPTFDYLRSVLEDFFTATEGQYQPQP
Sequence of Abl (P00519 whole entry): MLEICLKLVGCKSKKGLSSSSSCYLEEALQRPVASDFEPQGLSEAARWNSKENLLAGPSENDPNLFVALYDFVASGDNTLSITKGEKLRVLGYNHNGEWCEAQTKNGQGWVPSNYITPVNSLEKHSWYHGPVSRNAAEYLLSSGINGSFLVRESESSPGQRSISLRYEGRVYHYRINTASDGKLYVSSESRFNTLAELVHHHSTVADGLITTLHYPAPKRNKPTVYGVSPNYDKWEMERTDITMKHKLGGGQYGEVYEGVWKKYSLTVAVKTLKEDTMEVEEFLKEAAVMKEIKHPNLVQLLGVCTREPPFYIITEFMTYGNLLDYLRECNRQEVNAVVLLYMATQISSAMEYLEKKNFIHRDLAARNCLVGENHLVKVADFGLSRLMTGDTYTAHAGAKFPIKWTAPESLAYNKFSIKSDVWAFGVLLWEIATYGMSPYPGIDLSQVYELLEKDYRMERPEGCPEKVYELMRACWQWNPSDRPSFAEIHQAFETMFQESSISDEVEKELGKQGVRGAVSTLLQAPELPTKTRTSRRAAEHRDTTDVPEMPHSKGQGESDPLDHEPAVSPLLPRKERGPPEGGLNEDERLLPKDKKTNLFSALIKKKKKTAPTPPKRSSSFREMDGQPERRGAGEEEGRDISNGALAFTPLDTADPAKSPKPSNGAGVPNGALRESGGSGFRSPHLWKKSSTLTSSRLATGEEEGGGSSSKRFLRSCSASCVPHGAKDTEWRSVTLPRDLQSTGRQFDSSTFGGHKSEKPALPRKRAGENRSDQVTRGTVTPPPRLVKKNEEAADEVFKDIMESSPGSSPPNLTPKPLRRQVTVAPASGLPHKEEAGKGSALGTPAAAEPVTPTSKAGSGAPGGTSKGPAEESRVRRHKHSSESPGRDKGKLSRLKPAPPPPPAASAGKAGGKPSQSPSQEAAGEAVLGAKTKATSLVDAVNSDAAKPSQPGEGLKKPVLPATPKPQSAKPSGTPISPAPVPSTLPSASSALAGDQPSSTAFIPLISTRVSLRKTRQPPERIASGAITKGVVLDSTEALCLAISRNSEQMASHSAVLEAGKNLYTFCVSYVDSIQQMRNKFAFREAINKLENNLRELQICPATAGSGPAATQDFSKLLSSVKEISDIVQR
Sequence of Fyn (P06241 whole entry): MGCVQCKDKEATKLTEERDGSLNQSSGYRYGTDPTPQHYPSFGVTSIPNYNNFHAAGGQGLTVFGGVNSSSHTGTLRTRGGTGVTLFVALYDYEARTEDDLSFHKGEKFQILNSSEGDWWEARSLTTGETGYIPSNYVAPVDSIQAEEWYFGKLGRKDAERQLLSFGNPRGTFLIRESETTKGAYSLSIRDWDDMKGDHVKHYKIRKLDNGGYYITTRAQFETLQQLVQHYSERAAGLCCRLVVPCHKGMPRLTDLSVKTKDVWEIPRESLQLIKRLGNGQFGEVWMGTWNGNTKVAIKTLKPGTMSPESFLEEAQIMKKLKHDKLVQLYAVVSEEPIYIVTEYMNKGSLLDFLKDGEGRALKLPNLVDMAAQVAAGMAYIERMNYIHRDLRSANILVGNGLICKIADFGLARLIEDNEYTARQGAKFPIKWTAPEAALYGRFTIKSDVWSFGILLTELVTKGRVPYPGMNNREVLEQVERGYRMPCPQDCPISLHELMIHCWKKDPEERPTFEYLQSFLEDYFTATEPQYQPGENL
Sequence of Lyn (P07948 whole entry): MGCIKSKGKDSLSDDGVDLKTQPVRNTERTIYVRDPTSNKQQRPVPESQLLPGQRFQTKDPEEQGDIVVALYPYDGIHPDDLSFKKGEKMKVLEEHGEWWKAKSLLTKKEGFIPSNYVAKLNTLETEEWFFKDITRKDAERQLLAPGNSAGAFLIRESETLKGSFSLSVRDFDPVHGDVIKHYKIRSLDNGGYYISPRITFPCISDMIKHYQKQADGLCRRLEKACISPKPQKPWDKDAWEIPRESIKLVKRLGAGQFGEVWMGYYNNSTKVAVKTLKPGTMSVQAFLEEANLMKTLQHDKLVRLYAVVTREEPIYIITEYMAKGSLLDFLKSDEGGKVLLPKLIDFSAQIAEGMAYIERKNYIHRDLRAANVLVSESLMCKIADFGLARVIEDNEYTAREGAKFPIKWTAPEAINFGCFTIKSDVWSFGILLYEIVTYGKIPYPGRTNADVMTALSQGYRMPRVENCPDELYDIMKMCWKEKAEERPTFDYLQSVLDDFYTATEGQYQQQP
Sequence of CHK1(h) (O14757 whole entry): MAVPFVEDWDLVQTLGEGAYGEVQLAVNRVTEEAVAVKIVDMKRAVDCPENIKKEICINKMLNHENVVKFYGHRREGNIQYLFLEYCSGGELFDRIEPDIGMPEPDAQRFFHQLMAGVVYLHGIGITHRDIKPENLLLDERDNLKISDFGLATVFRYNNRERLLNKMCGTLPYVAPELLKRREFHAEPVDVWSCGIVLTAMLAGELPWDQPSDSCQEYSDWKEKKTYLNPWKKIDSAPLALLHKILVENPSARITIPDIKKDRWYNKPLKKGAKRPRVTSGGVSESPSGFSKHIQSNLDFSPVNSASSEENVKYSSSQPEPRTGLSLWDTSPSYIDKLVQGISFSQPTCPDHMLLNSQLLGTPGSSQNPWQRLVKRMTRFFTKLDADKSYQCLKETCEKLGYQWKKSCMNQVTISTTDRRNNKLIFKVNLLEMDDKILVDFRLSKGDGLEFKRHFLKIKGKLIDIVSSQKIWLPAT

Compound: O=C(Cc1ccc(-c2ccc(OCCN3CCOCC3)cc2)cn1)NCc1ccccc1 [KX2-391]
- activity against isolated kinases (isolated kinases): weak activity against isolated kinases
- inhibition of isolated Abl (Abl): poor inhibition
- percent activity of isolated kinase relative to control, Ab1(h) (Abl; @ 10 μM): 120%
- inhibition of isolated EGFRTK (EGFRTK): poor inhibition
- percent activity of isolated kinase relative to control, EGFR(h) (EGFRTK; @ 10 μM): 134%
- inhibition of isolated Fyn (Fyn): poor inhibition
- percent activity of isolated kinase relative to control, Fyn(h) (Fyn; @ 10 μM): 85%
- inhibition of isolated Lck (Lck): poor inhibition
- percent activity of isolated kinase relative to control, Lck(h) (Lck; @ 10 μM): 109%
- inhibition of isolated Lyn (Lyn): poor inhibition
- percent activity of isolated kinase relative to control, Lyn(h) (Lyn; @ 10 μM): 113%
- inhibition of isolated Yes (Yes): poor inhibition
- percent activity of isolated kinase relative to control, Yes(h) (Yes; @ 10 μM): 92%
- percent activity of isolated kinase relative to control, PDGFRβ(h) [1]: 110%
- IC50 (Src): 46000 nM
- GI50 [2]: 13 nM
- GI50 [3]: 23 nM
- Src-Y416 autophosphorylation (Src-Y416): expected dose response
- phosphorylation of FAK Tyr 925 (FAK Tyr 925): inhibited Src trans-phosphorylation
- phosphorylation of Shc Y239/240 (Shc Y239/240): inhibited Src trans-phosphorylation
- phosphorylation of Paxillin Y-31 (Paxillin Y-31): inhibited Src trans-phosphorylation
- induction of apoptosis (Caspase-3 cleavage) (Caspase-3): very effective in inducing apoptosis
- total phosphotyrosine levels (total phosphotyrosine): reduction in the total phosphotyrosine levels
- PDGF receptor autophosphorylation [4]: Some effect is seen
- FAK autophosphorylation (Y397) (FAK Y397): no inhibition of FAK autophosphorylation
- EGFR tyrosine kinase autophosphorylation (EGFR tyrosine kinase): less active
- percent activity of isolated kinase relative to control, CHK1(h) (CHK1(h)): 105%
- percent activity of isolated kinase relative to control, FGFR2(h) (FGFR2(h)): 94%
- percent activity of isolated kinase relative to control, IGF-1R(h) (IGF-1R(h)): 101%
- percent activity of isolated kinase relative to control, IR(h) (IR(h)): 112%
- percent activity of isolated kinase relative to control, MAPK2(h) (MAPK2(h)): 112%
- percent activity of isolated kinase relative to control, PKCα(h) (PKCα(h)): 111%
- percent activity of isolated kinase relative to control, Pyk2(h) (Pyk2(h)): 97%
- percent activity of isolated kinase relative to control, ZAP-70(h) (ZAP-70(h)): 108%
- percent activity of isolated kinase relative to control, PI3 kinase (PI3 kinase): 100%
